Source: ChEMBL document CHEMBL1148975, “Ancistrobenomine a, the first naphthylisoquinoline oxygenated at Me-3, and related 5,1'-coupled alkaloids, from the "new" plant species ancistrocladusbenomensis” (J Nat Prod, 2004)
Converted amounts (≈) assume the structure as drawn.

How the values were obtained:
Plasmodium falciparum = test: Antiplasmodial activity against Plasmodium falciparum K1; type: functional, organism-based
Trypanosoma cruzi = test: Antitrypanosomal activity against Trypanosoma cruzi; type: functional, organism-based
[1] = system: Trypanosoma brucei rhodesiense; test: Antitrypanosomal activity against Trypanosoma brucei rhodesiense; type: functional, organism-based
Leishmania donovani = test: Antileishmanial activity against Leishmania donovani; type: functional, organism-based
L6 = test: Cytotoxicity against rat L6 cells; type: cell-based

Row | Compound | IC50 (Plasmodium falciparum) | IC50 (Trypanosoma cruzi) | IC50 [1] | IC50 (Leishmania donovani) | MIC (L6)
1 | COc1cc(O)c(-c2c(C)cc(OC)c3c(O)cccc23)c2c1[C@@H](C)N(C)[C@@H](C)C2 | 0.51 µg/mL (≈ 1.25 µM) | 36.4 µg/mL (≈ 89.3 µM) | 2.2 µg/mL (≈ 5.4 µM) | 18.8 µg/mL (≈ 46.1 µM) | 15.5 µg/mL (≈ 38 µM)
2 | COc1cccc2c(-c3c(O)cc(OC)c4c(C)nc(CO)cc34)c(C)cc(O)c12 [6-O-DEMETHYLANCISTROBENOMINE A] | 2.18 µg/mL (≈ 5.38 µM) | 23.4 µg/mL (≈ 57.7 µM) | 14.7 µg/mL (≈ 36.3 µM) | > 30 µg/mL | 59.9 µg/mL (≈ 148 µM)
3 | COc1cc(OC)c2c(C)nc(CO)cc2c1-c1c(C)cc(O)c2c(OC)cccc12 [ANCISTROBENOMINE A] | 0.76 µg/mL (≈ 1.81 µM) | 4.8 µg/mL (≈ 11.4 µM) | 1.3 µg/mL (≈ 3.1 µM) | > 10 µg/mL | 12.3 µg/mL (≈ 29.3 µM)
4 | Nc1nc(N)nc(Nc2ccc([As]3SCC(CO)S3)cc2)n1 (stereo unspecified) [MELARSOPROL] | – | – | 0.00095 µg/mL | – | –
